Assay results from patent publication US8143394B2, “Pyrido(3,2-d)pyrimidines useful for treating viral infections” (Gilead Sciences, Inc., priority 2006, dated 2012).
Like-named read-outs stand apart in the source and are kept apart here.

Experiments:
[1] = CC50 assay (CellTiter-Glo) in Huh-7 HCV replicon cells; format: cell-based, human; details: human, 50% cytostatic concentration
Method: (§1) The anti-HCV activity of the pyrido[3,2-d]pyrimidine derivatives of this invention was tested in a human hepatoma Huh-7 cell line harbouring a HCV replicon. The assay comprised the following steps:
(§2) Step 1: Compound Preparation and Serial Dilution
(§3) • 1. for water soluble pyrido[3,2-d]pyrimidine derivatives, a volume of 500 μL of solution in cell media (DMEM, 10% FBS, P/S, L-Glutamine) was prepared with a concentration being twice the concentration of the starting final serial dilution concentration. A volume of 150 μL of the solution was added to the pre-specified wells in column 1 of a 96-well cell culture plate (PerkinElmer, white plate, cat. #6005181, for EC50 assay; black plate, cat. #6005182 for CC50 assay). The rest of the plate, columns 2-12, was filled with 100 μL of cell media. The plate was then placed on a Precision 2000 Workstation to start the serial dilution. Compounds were diluted three times each step from column 1 to column 10. Column 11 was used as a blank control (no compound added). • 2. for pyrido[3,2-d]pyrimidine derivatives requiring DMSO to dissolve, serial dilution is performed in 50% DMSO in a 384-well plate. A solution containing a compound at 100-fold concentration of the starting final serial dilution concentration was prepared in 50% DMSO and added to the pre-specified wells in column 1 of a polypropylene 384-well plate. The plate was then placed on a Precision 2000 Workstation to start the serial dilution. After the serial dilution, a volume of 2 μL of the solution was transferred from the 384-well plate to a 96-well cell culture plate containing 100 μL of cell media on a Biomek FX Workstation. The DMSO concentration in the final assay condition was 0.5% after cells are added to the plate and the total volume in each well is brought to 200 μL. Step 2: to each well of the serial dilution plate prepared above, 100 μL of cell media containing 6000 suspended Huh-7 HCV replicon cells was added with a Multidrop workstation. The plates were incubated for 3 days at 37° C. with 5% CO2. Step 3: Detection: • a) for the EC50 assay, the media in a 96-well cell culture plate was aspirated with a Biotek EL405 plate-washer. A volume of 200 μL of a solution containing a 1:1 mixture of cell-lysis buffer (Promega, Luciferase Cell Culture Lysis 5X Reagent, cat. #E1531) and luciferase substrate solution (Promega, Luciferase Assay, cat. # E4550) was added to each well of the plate with Multidrop. The plate was incubated for 30 minutes at room temperature before the luminescence signal was measured with a TopCount plate-reader. • b) for the CC50 assay, a volume of 100 μL of pre-mixed CellTiter-Glo (Promega, cat. # G7572) solution is added directly to the cell culture in each well of the plate and the luminescence signal is measured with a TopCount plate-reader after 10 minutes of incubation at room temperature.
(§4) Results in table 13 are expressed by the following data: • the 50% effective concentration (EC50), i.e. the concentration that protects 50% of the cell monolayer from virus-induced cythopathic effect, and • the 50% cytostatic concentration (CC50), i.e. the concentration that results in 50% inhibition of cell growth.

HCV replicon = test: Anti-HCV replicon assay (EC50, luciferase readout); format: cell-based; details: Hepatitis C virus
Method: as §1, §2, §3, §4

[2] = 72 h, human hepatoma Huh-7 cell line harbouring a HCV replicon, 3 days, luciferase, read-out: EC50

Row | Compound | CC50 at 3 days [1] [nM] | EC50 (HCV replicon; [2]) [nM] | EC50 (HCV replicon; Huh-7, 72 h) [nM]
1 | CC(C)C(=O)Nc1ccc(-c2ccc3nc(N)nc(O[C@H]4CCOC4)c3n2)cc1 [Example 27, N-{4-[2-Amino-4-(tetrahydro-furan-3-yloxy)-pyrido[3,2-d]pyrimidin-6-yl]-phenyl}-isobutyramide] | > 20000 | < 300 | –
2 | Nc1nc(O[C@@H]2CCOC2)c2nc(-c3ccc(N4CCCC4=O)cc3)ccc2n1 [Example 28, 1-{4-[2-Amino-4-(tetrahydro-furan-3-yloxy)-pyrido[3,2-d]pyrimidin-6-yl]-phenyl}-pyrrolidin-2-one] | > 20000 | < 300 | –
3 | CC(C)Oc1nc(N)nc2ccc(-c3ccc(NC(=O)C(C)C)cc3)nc12 [Example 29, N-[4-(2-amino-4-isopropoxy-pyrido[3,2-d]pyrimidin-6-yl)-phenyl]-isobutyramide] | > 20000 | < 300 | –
4 | CCOc1nc(N)nc2ccc(-c3ccc(NC(=O)C4(N)CC4)c(F)c3)nc12 [Example 30, 1-Amino-cyclopropanecarboxylic acid [4-(2-amino-4-ethoxy-pyrido[3,2-d]pyrimidin-6-yl)-2-fluoro-phenyl]-amide] | > 20000 | < 300 | –
5 | CCOc1nc(N)nc2ccc(-c3ccc(Nc4nccs4)cc3)nc12 [Example 31] | 10000 to 20000 | 300 to 1000 | –
6 | CCOc1nc(N)nc2ccc(-c3ccc(Nc4nncs4)cc3)nc12 [Example 32, 4-Ethoxy-6-[4-([1,3,4]thiadiazol-2-ylamino)-phenyl]-pyrido[3,2-d]pyrimidin-2-ylamine] | > 20000 | 300 to 1000 | –
7 | CCOc1nc(N)nc2ccc(-c3ccc(NC(=O)C4(O)CC4)cc3)nc12 [Example 33, 1-Hydroxy-cyclopropanecarboxylic acid [4-(2-amino-4-ethoxy-pyrido[3,2-d]pyrimidin-6-yl)-phenyl]-amide] | > 20000 | < 300 | –
8 | CCOc1nc(N)nc2ccc(-c3ccc(NC(=O)[C@H](C)N)c(F)c3)nc12 [Example 34, 2-Amino-N-[4-(2-amino-4-ethoxy-pyrido[3,2-d]pyrimidin-6-yl)-2-fluoro-phenyl]-propanamide] | > 20000 | < 300 | –
9 | CCOc1nc(N)nc2ccc(-c3cccc(NS(=O)(=O)CC(F)(F)F)c3)nc12 [Example 35, 2,2,2-Trifluoro-ethanesulfonic acid [3-(2-amino-4-ethoxy-pyrido[3,2-d]pyrimidin-6-yl)-phenyl]-amide] | > 20000 | 300 to 1000 | –
10 | CCOc1nc(N)nc2ccc(-c3ccc(NC(=O)C4(N)CC4)cc3)nc12 [Example 36, 1-Amino-cyclopropanecarboxylic acid [4-(2-amino-4-ethoxy-pyrido[3,2-d]pyrimidin-6-yl)-phenyl]-amide] | > 20000 | < 300 | –
11 | CCOc1nc(N)nc2ccc(-c3ccc(NC(=O)C(C)(C)N)cc3)nc12 [Example 37, 2-Amino-N-[4-(2-amino-4-ethoxy-pyrido[3,2-d]pyrimidin-6-yl)-phenyl]-2-methyl-propionamide] | > 20000 | < 300 | –
12 | CCOc1nc(N)nc2ccc(-c3ccc(NC(=O)[C@H](C)N)c(OC)c3)nc12 [Example 38, 2-Amino-N-[4-(2-amino-4-ethoxy-pyrido[3,2-d]pyrimidin-6-yl)-2-methoxy-phenyl]-propionamide] | > 20000 | < 300 | –
13 | CCOc1nc(N)nc2ccc(-c3ccc(NC(=O)C4CC4)cc3)nc12 [Example 39, Cyclopropanecarboxylic acid [4-(2-amino-4-ethoxy-pyrido[3,2-d]pyrimidin-6-yl)-phenyl]-amide] | > 20000 | < 300 | –
14 | CCOc1nc(N)nc2ccc(-c3cccc(NS(=O)(=O)c4ccc(C)cc4)c3)nc12 [Example 40] | > 20000 | 300 to 1000 | –
15 | CCOc1nc(N)nc2ccc(-c3ccc(NC(=O)[C@@H](N)CO)cc3)nc12 [Example 41, 2-Amino-N-[4-(2-amino-4-ethoxy-pyrido[3,2-d]pyrimidin-6-yl)-phenyl]-3-hydroxy-propionamide] | > 20000 | < 300 | –
16 | CCOc1nc(N)nc2ccc(-c3ccc(NC(=O)[C@H](C)N)cc3)nc12 [Example 42, 2-Amino-N-[4-(2-amino-4-ethoxy-pyrido[3,2-d]pyrimidin-6-yl)-phenyl]-propionamide] | > 20000 | < 300 | –
17 | CCOc1nc(N)nc2ccc(-c3ccc(NS(C)(=O)=O)cc3)nc12 [Example 43, N-[4-(2-Amino-4-ethoxy-pyrido[3,2-d]pyrimidin-6-yl)-phenyl]-methanesulfonamide] | > 20000 | > 1000 | –
18 | CCOc1nc(N)nc2ccc(-c3ccc(NC(=O)OC)cc3)nc12 [Example 44, [4-(2-Amino-4-ethoxy-pyrido[3,2-d]pyrimidin-6-yl)-phenyl]-carbamic acid methyl ester] | > 20000 | – | 300 to 1000
19 | CCOc1nc(N)nc2ccc(-c3cccc(NS(C)(=O)=O)c3)nc12 [Example 45, N-[3-(2-Amino-4-ethoxy-pyrido[3,2-d]pyrimidin-6-yl)-phenyl]-methanesulfonamide] | > 20000 | < 300 | –
20 | CCOc1nc(N)nc2ccc(-c3ccc(NC(=O)CC)cc3)nc12 [Example 46, N-[4-(2-Amino-4-ethoxy-pyrido[3,2-d]pyrimidin-6-yl)-phenyl]-propionamide] | > 20000 | < 300 | –
21 | CCOc1nc(N)nc2ccc(-c3ncc(N)s3)nc12 [Example 47, 6-(5-amino-thiazol-2-yl)-4-ethoxy-pyrido[3,2-d]pyrimidin-2-ylamine] | 10000 to 20000 | < 300 | –
22 | CCOc1nc(N)nc2ccc(-c3cccc(NS(=O)(=O)c4cnc(NC(C)=O)s4)c3)nc12 [Example 48, N-{5-[3-(2-Amino-4-ethoxy-pyrido[3,2-d]pyrimidin-6-yl)-phenylsulfamoyl]-thiazol-2-yl}-acetamide] | > 20000 | < 300 | –
23 | CCOc1nc(N)nc2ccc(-c3cccc(NS(=O)(=O)c4cn(C)cn4)c3)nc12 [Example 49, 1-Methyl-1H-imidazole-4-sulfonic acid [3-(2-amino-4-ethoxy-pyrido[3,2-d]pyrimidin-6-yl)-phenyl]-amide] | > 20000 | 300 to 1000 | –
24 | CCOc1nc(N)nc2ccc(-c3cccc(NS(=O)(=O)c4c(C)noc4C)c3)nc12 [Example 50, 3,5-Dimethyl-isoxazole-4-sulfonic acid [3-(2-amino-4-ethoxy-pyrido[3,2-d]pyrimidin-6-yl)-phenyl]-amide] | > 20000 | 300 to 1000 | –
25 | CCOc1nc(N)nc2ccc(-c3cccc(NS(=O)(=O)C4CCS(=O)(=O)C4)c3)nc12 (stereo not drawn) [Example 51, 1,1-Dioxo-tetrahydro-1?^6-thiophene-3-sulfonic acid [3-(2-amino-4-ethoxy-pyrido[3,2-d]pyrimidin-6-yl)-phenyl]-amide] | > 20000 | < 300 | –
26 | CCOc1nc(N)nc2ccc(-c3cccc(NS(=O)(=O)C(C)C)c3)nc12 [Example 52, Propane-2-sulfonic acid[3-(2-amino-4-ethoxy-pyrido[3,2-d]pyrimidin-6-yl)-phenyl]-amide] | < 10000 | < 300 | –
27 | CCOc1nc(N)nc2ccc(-c3cccc(NS(=O)(=O)C4CC4)c3)nc12 [Example 53, Cyclopropanesulfonic acid[3-(2-amino-4-ethoxy-pyrido[3,2-d]pyrimidin-6-yl)-phenyl]-amide] | > 20000 | < 300 | –
